Reference: patent US7935366B2 (priority 2006, dated 2011)
Read-outs that look alike come from different tables or passages of the source.

What was measured:
[1] = assay type: in vivo; settings: 24 h post ip. ^131I; stable iodine given 2 h post ^131I
[2] = assay type: in vivo; settings: rats; 24 h post oral ^131I; stable iodide equivalent to 100 mg/70 Kg adult given orally 2 h post ^131I
[3] = assay type: in vivo; settings: stable iodine equivalent to 100 mg/70 Kg adult per day mixed with diet, 2 h post i.p. ^131I
[4] = assay type: in vivo; settings: stable iodine equivalent to 100 mg/70 Kg adult per day administered orally, 2 h post i.p. ^131I
[5] = Whole body retention of ^137Cs, CKF vs Prussian Blue; assay type: in vivo
[6] = Percent binding capacity of *Cs at different pH; assay type: physicochemical
[7] = test system: rat bone marrow erythrocytes; assay type: in vivo; settings: FIG. 2
From the text: […]. The geno-toxicity assessment of [CaK2Fe(CN)6] and Prussian Blue for the formation of micronuclei (i.e. part of parent nucleus, which is left behind in the cytoplasm as a daughter nuclei, due to damage to chromosomes during cell division).

[8] = test system: DNA damage; settings: FIG. 3
[9] = experimental animals
[10] = some subjects; cited from earlier work

For [K+].[O-][I+2]([O-])[O-] [KIO3], the “Percent ^131I WBR” value [1] was 40 ± 2%, the “Percent ^131I in BLOOD” value [1] was 1.6 ± 0.4% and the “Percent ^131I in CARCAS” value [1] was 17 ± 2%. For the same compound, the “Percent ^131I in EXCRETA” value [1] was 64 ± 5%, the “Percent ^131I in LIVER + GUT” value [1] was 16 ± 1% and the “Percent ^131I in THYROID” value [1] was 10 ± 1%. The “Percent ^131I WBR” value [2] was 14 ± 3 percent administered dose, the “Percent ^131I in BLOOD” value [2] was 0.6 ± 0.05 percent administered dose and the “Percent ^131I in CARCAS” value [2] was 8 ± 0.5 percent administered dose. For the same compound, the “Percent ^131I in EXCRETA” value [2] was 81 ± 1 percent administered dose, the “Percent ^131I in LIVER + GUT” value [2] was 7 ± 0.5 percent administered dose and the “Percent ^131I in THYROID” value [2] was 4 ± 0.5 percent administered dose. For the same compound, the “WHOLE BODY RETENTION OF RADIO-IODINE” value ([3]; day 1) was 28 ± 3, the “WHOLE BODY RETENTION OF RADIO-IODINE” value ([3]; day 2) was 12 ± 2 and the “WHOLE BODY RETENTION OF RADIO-IODINE” value ([3]; day 3) was 10 ± 4. The “WHOLE BODY RETENTION OF RADIO-IODINE” value ([3]; day 4) was 8 ± 2, the “WHOLE BODY RETENTION OF RADIO-IODINE” value ([3]; day 5) was 7 ± 3 and the “WHOLE BODY RETENTION OF RADIO-IODINE” value ([3]; day 6) was 7 ± 1. The “WHOLE BODY RETENTION OF RADIO-IODINE” value ([3]; day 7) was 8 ± 2, the “WHOLE BODY RETENTION OF RADIO-IODINE” value ([3]; day 9) was 6 ± 3 and the “WHOLE BODY RETENTION OF RADIO-IODINE” value ([3]; day 10) was 3 ± 4. For the same compound, the “WHOLE BODY RETENTION OF RADIO-IODINE” value ([3]; day 11) was 2 ± 1, the “WHOLE BODY RETENTION OF RADIO-IODINE” value ([3]; day 13) was 2 ± 2 and the “WHOLE BODY RETENTION OF RADIO-IODINE” value ([3]; day 14) was 1 ± 1. The “WHOLE BODY RETENTION OF RADIO-IODINE” value ([4]; day 1) was 28 ± 4, the “WHOLE BODY RETENTION OF RADIO-IODINE” value ([4]; day 2) was 12 ± 2 and the “WHOLE BODY RETENTION OF RADIO-IODINE” value ([4]; day 3) was 10 ± 3. The “WHOLE BODY RETENTION OF RADIO-IODINE” value ([4]; day 4) was 8 ± 1, the “WHOLE BODY RETENTION OF RADIO-IODINE” value ([4]; day 5) was 7 ± 2 and the “WHOLE BODY RETENTION OF RADIO-IODINE” value ([4]; day 6) was 7 ± 4. The “WHOLE BODY RETENTION OF RADIO-IODINE” value ([4]; day 7) was 8 ± 2 and the “WHOLE BODY RETENTION OF RADIO-IODINE” value ([4]; day 9) was 6 ± 2.
For [C-]#N.[C-]#N.[C-]#N.[C-]#N.[C-]#N.[C-]#N.[C-]#N.[C-]#N.[C-]#N.[C-]#N.[C-]#N.[C-]#N.[C-]#N.[C-]#N.[C-]#N.[C-]#N.[C-]#N.[C-]#N.[Fe+2].[Fe+2].[Fe+2].[Fe+3].[Fe+3].[Fe+3].[Fe+3] [PB, ferric hexa-cyanoferrate (II)], the “WHOLE BODY RETENTION - ^137Cs” value ([5]; day 0) was 100 percent administered dose, the “WHOLE BODY RETENTION - ^137Cs” value ([5]; day 1) was 61 ± 10 percent administered dose and the “WHOLE BODY RETENTION - ^137Cs” value ([5]; day 4) was 31 ± 4 percent administered dose. The “WHOLE BODY RETENTION - ^137Cs” value ([5]; day 8) was 21 ± 3 percent administered dose, the “WHOLE BODY RETENTION - ^137Cs” value ([5]; day 12) was 15 ± 2 percent administered dose and the “WHOLE BODY RETENTION - ^137Cs” value ([5]; day 16) was 11 ± 2 percent administered dose. For the same compound, the “WHOLE BODY RETENTION - ^137Cs” value ([5]; day 20) was 7 ± 1 percent administered dose, the “WHOLE BODY RETENTION - ^137Cs” value ([5]; day 24) was 6 ± 1 percent administered dose and the “WHOLE BODY RETENTION - ^137Cs” value ([5]; day 28) was 5 ± 1 percent administered dose. For the same compound, the “speed of removing *Cs from in vivo system” value ([5]; experimental animals) was “slow”, the “binding with *Cs” value ([6]; FIG. 4, neutral pH) was “weaker binding” and the “PERCENT BINDING CAPACITY of *Cs” value ([6]; pH 2) was 27 ± 2%. For the same compound, the “PERCENT BINDING CAPACITY of *Cs” value ([6]; pH 3) was 58 ± 0.7%, the “PERCENT BINDING CAPACITY of *Cs” value ([6]; pH 4) was 75 ± 0.4% and the “PERCENT BINDING CAPACITY of *Cs” value ([6]; pH 5) was 75 ± 0.3%. For the same compound, the “PERCENT BINDING CAPACITY of *Cs” value ([6]; pH 6) was 67 ± 0.6%, the “PERCENT BINDING CAPACITY of *Cs” value ([6]; pH 7) was 59 ± 0.9% and the “micronuclei formation, means±SE versus control” value ([7]; all the tested doses) was “not significantly different from control”. For the same compound, the “geno-toxicity, micronuclei formation” value ([7]; dose of 5 mg/100 g BW (equivalent to 3.5 g/d/70 Kg adult)) was “did not induce any toxicity”, the “geno-toxicity, micronuclei formation” value ([7]; five and ten times the dose of 5 mg/100 g BW) was “marginal increase in the formation of micronuclei” and the “DNA damage in alkaline comet assay” value [8] was “do not induce any apparent DNA damage”. For the same compound, the “gastro-intestinal and cardio-toxicity (histo-pathologic changes)” value [9] was “induces gastro-intestinal and cardio-toxicity” and the constipation [10] was “induce constipation in some subjects”.
